Assay: in vitro
Conditions: human, hela cells, % viability

SMILES	viability at 28.5 h, 10 µM	viability at 28.5 h, 10 µM (bulk resorufin, single well)
Cc1ccc(S(=O)(=O)NC(C)(C)C(=O)O)cc1 [CBK263840]	88.8%	
COc1ccc(CN2C(=O)COC[C@@H]2[C@H](O)c2ccc(NC(C)=O)cc2)cc1 [CBK289674]	95.6%	
CCOc1ccc(N(Cc2cc3cc(C)ccc3nc2O)C(=O)c2ccccc2OC)cc1 [CBK265427]	103%	
Cc1cc(N2CCN(c3ccc(O)cc3)CC2)n2nc(-c3nccn3C)cc2n1 [CBK286188]	91.2%	
O=C(c1cccnc1)N1CCN(Cc2cccc(Oc3ccccc3)c2)CC1 [CBK263326G]	101%	
Cn1c2ccccc2c2nnc(SCCc3ccccc3)nc21 [CBK267986]	109%	
NS(=O)(=O)c1ccc(CCNC(=O)/C=C/c2ccccc2Cl)cc1 [CBK264379]	94%	
Cc1ccc(CN(CCCn2ccnc2)Cc2cncn2C)s1 [CBK283106]	90.2%	
C#CCNCc1ccc(O)cc1 [CBK013235C]	87.4%	
CC(C)[C@H](CO)Nc1cncc(-c2ccc(F)cc2F)n1 [CBK065883]	92.3%	
CCN1CCN(Cc2ccc(OC)c(OCc3ccccc3)c2)CC1 [CBK261910]	89.4%	
CCN(Cc1ccc(C#N)cc1F)C(=O)Nc1cc(C)nn1C [CBK305730]	94.2%	
CC(C)(CNC(=O)Cn1cccc(C(=O)NC2CCCCC2)c1=O)c1ccccc1F [CBK286068]	89.6%	
CCc1cccc2c(C=C3C(=O)N(CC(=O)O)C(=O)c4ccccc43)c[nH]c12 [CBK295153]	81.5%	
O=C(C1CCCCC1)N1CC(n2nc(-c3ccccc3)ccc2=O)C1 [CBK284616]	92.8%	
O=C(Cc1ccc(F)cc1)NCc1nnc(-c2cccs2)o1 [CBK284640]	82.6%	
O=C(CSc1nc2sc3c(c2c(=O)n1CCc1ccccc1)CCCC3)Nc1ccccc1 [CBK267281]	112%	
NC(=O)C1(Cc2cccc(-c3cccs3)c2)CCN(C(=O)Cc2ccccc2)CC1 [CBK286272]	84.8%	
CCOC(=O)Cn1ccc2ccnc(-c3cccc(OC)c3)c21 [CBK284707]	89.6%	
Cc1nnc(N2CCN(Cc3sccc3Cl)CC2)nc1C [CBK304075]	93.7%	
c1ncc(OC2CCNC2)nc1OCCN1CCOCC1 (stereo not drawn) [CBK077311T]	91.2%	
CCc1nn(CC(=O)N2CCCC2)c(=O)c2cc3sc(C)cc3n12 [CBK284122]	82.9%	
CCn1cc(C(=O)N2CCCCC2c2nc3cc(C)ccc3[nH]2)cn1 (stereo not drawn) [CBK283869]	84.6%	

SMILES	viability at 28.5 h, 10 µM	viability at 28.5 h, 10 µM (bulk resorufin, single well)
O=c1n(-c2ccc(Cl)c(Cl)c2)ccn1S(=O)(=O)CCc1cccc2ccccc12 [CBK106668]	106%	
O=C(NCCCn1ccnc1)c1cc([N+](=O)[O-])cc([N+](=O)[O-])c1 [CBK261773]		87.5%
Cc1ccc(OCC(=O)Nc2ncc(C(F)(F)F)cc2Cl)c(Br)c1 [CBK266426]	95.1%	
O=C(O)C1(NCc2ccccc2Cl)CCCCC1 [CBK287269]	78.9%	
O=C(O)C1Nc2ccc(Br)cc2C2C=CCC12 (stereo not drawn) [CBK026482]	92.1%	
CCC1(C)CC(=O)c2cc(NC(=O)N(CCO)CCO)ccc2O1 (stereo not drawn) [CBK307003]	116%	
COc1ccc(-c2c[nH]c([C@@H]3COCCN3Cc3cccc(C#N)c3)n2)cc1 [CBK289298]	96%	
O=C(Nc1ccc2ncsc2c1)C1COc2ccccc2O1 (stereo not drawn) [CBK287750]	95.6%	
COC(=O)C1C(=O)c2cc3c(cc2C1c1cc(OC)c(OC)c(OC)c1)OCO3 (stereo not drawn) [CBK200099]	92.5%	
CCc1nn(C)c2[nH]nc(NC(=O)Cc3csc(C)n3)c12 [CBK305538]	91.7%	
CCCCNC(=O)c1c(N)n(-c2ccc(C(=O)O)cc2)c2nc3ccccc3nc12 [CBK300500]	82.7%	
O=C(O)CCCn1cc(NC(=O)CCc2ccccc2)cn1 [CBK287055]	86.4%	
O=C(NCc1cccnc1)c1csc2c1CCCC2 [CBK305029]	86.4%	
Cc1cc(C)cc(NC(=O)Cn2cnc3c(sc4ccccc43)c2=O)c1 [CBK287807]	82.5%	
CCC(NC(=O)Nc1cc(N2CCOCC2)ccc1Cl)c1cnn(C)c1 (stereo not drawn) [CBK306844]	114%	
CC1=C(C)CC(C(=O)Nc2sc3c(c2C(=O)OC(C)C)CCCC3)C(C(=O)O)C1 (stereo not drawn) [CBK265428]	87%	
CC12CN(S(=O)(=O)c3ccccc3)CC(c3ccccc3)(CN(S(=O)(=O)c3ccccc3)C1)C2=O [CBK268101]	97%	
O=C(NC(=S)Nc1ccc(OCc2ccccc2)cc1)c1cccnc1 [CBK266224]	97.8%	
O=C(N[C@H]1CCN2C(=O)N(CCCl)C(=O)[C@@H]2C1)c1cccs1 [CBK289542]		90.8%
O=C1CC(C(=O)Nc2ncccn2)C(c2ccccc2)O1 (stereo not drawn) [CBK265130]	106%	
COc1ccccc1-c1nccnc1N1CCN(c2ccncc2)CC1 [CBK037081]	87.8%	
N#Cc1ccc(SCCOC(=O)c2cccs2)c([N+](=O)[O-])c1 [CBK066853]	99%	
Cn1nccc1C(=O)NC1CCN(CC2(c3ccccc3)CC2)CC1 [CBK285373]	106%	

SMILES	viability at 28.5 h, 10 µM	viability at 28.5 h, 10 µM (bulk resorufin, single well)
COCCNc1nccnc1-c1cccc(C(F)(F)F)c1 [CBK037330]	89.7%	
CC[C@H]1CN(C(=O)Nc2cccc(OC)c2)CC[C@H]1CC(=O)O [CBK288778]	110%	
CC(=O)Nc1ccc(CNC(=O)CN(C)CC2CCCCO2)cc1 (stereo not drawn) [CBK306567]	89.6%	
O=C(Nc1cc(N2CCCS2(=O)=O)ccc1F)c1cccnc1O [CBK306320]	97.4%	
COc1ccc(CNC(=O)c2cc(O)nc3ccccc23)cc1OC [CBK296763]	90.2%	
CCOC(=O)CCCCCCC(=O)N1CCN(c2ccc(C(F)(F)F)cc2)CC1 [CBK091327]	107%	
CCCn1cc(NC(=O)NC(CC)(CO)c2ccccc2)ccc1=O (stereo not drawn) [CBK305060]	104%	
Cc1ccc(S(N)(=O)=O)cc1N [CBK024851]	109%	
CCCOCCN1CCN(C(=O)c2nn3cc(C)cnc3c2Cl)CC1 [CBK306690]	95.6%	
O=C(Nc1ccccn1)C1CCCN1c1nc(O)cc(C(F)(F)F)n1 (stereo not drawn) [CBK004254]	91%	
c1coc(-c2nccnc2NCc2ccncc2)c1 [CBK038059]	105%	
O=C(COc1cccc(Cl)c1)N/N=C\c1ccc(C(=O)O)cc1 [CBK262293]	102%	
CCN(CC)C(=O)c1sccc1NS(=O)(=O)c1cc(Br)c(Cl)s1 [CBK004599]	98.3%	
O=C(NCCO)c1nc(NCCO)c2ccccc2n1 [CBK267239]	110%	
OC(CNCC1COc2ccccc2O1)C(F)(F)F (stereo not drawn) [CBK074834]	102%	
O=C(O)C1(Cc2ccc(-c3ccccc3)cc2)CCNC1 (stereo not drawn) [CBK281687]	91.2%	
COc1ccc2[nH]c3c(c2c1)CCNC31CCN(CCSc2ccccc2)C1 (stereo not drawn) [CBK084541T]	92%	
COCCNc1nc(-c2cccc3ccccc23)cnc1N [CBK063574]	99.1%	
Cc1cccc(C)c1N(C1CCNCC1)S(=O)(=O)c1ccc2c(c1)CCO2 [CBK153668T]	99.1%	
COc1ccc(CCN[C@H]2CCC[C@@H]2O)cc1OC [CBK005354G]	78.4%	
Cc1ccc2cc(C3CC(c4ccccc4)=NN3C(=O)CCC(=O)O)c(=O)[nH]c2c1 (stereo not drawn) [CBK296127]	109%	
C[C@@H](Nc1cncc(-c2cccc(N)c2)n1)c1ccccc1 [CBK065273]	87.1%	
COc1cc(C(=O)N2CCC(n3c(=O)[nH]c4c(C)cccc43)CC2)ccc1C [CBK155372]	94.2%	

SMILES	viability at 28.5 h, 10 µM	viability at 28.5 h, 10 µM (bulk resorufin, single well)
O=c1[nH]cnc2ccc(Br)cc12 [CBK026537]	93.7%	
Fc1ccc(-c2cn3ccnc3c(NC3CC3)n2)cc1F [CBK066692]	101%	
FC(F)(F)c1nc2ccccc2nc1SCc1ccccc1 [CBK103732]	87%	
O=c1c(Cl)nc(Cl)c(C2CCCCC2)n1Cc1ccccc1 [CBK012671]	87.6%	
CCOC(=O)c1cnn2c(O)cc(CN3CCc4sccc4C3)nc12 [CBK305680]	106%	
CCC(=O)N1CCC(NC(=O)N(CCc2ccccn2)Cc2ccccc2)CC1 [CBK171898]	90.9%	
O=C1CCN(Cc2ccccc2)CCN1Cc1cccc(F)c1 [CBK284466]	96.4%	
Cc1nc(-c2ccc(CCNC(=O)c3cc(O)nc4ccccc34)s2)cs1 [CBK297720]	94.2%	
c1ccc2[nH]c(CCCCCc3nc4ccccc4[nH]3)nc2c1 [CBK267694]	107%	
COc1ccc(-c2n[nH]c(=S)n2CC(=O)Nc2nc(-c3ccc(C)cc3C)cs2)cc1 [CBK295316]	96.9%	
COc1cc2c(cc1OC)C1c3ccccc3NC(c3ccc(C)cc3)N1CC2 (stereo not drawn) [CBK286195]	72.7%	
COc1ccc2[nH]cc([C@@H]3CCC[C@H](NC(=O)C4CCCO4)C3)c2c1 (stereo partly drawn) [CBK284699]	105%	
Nc1nc(=O)[nH]c2c1ncn2[C@@H]1O[C@H](CO)[C@H](O)C1O (stereo partly drawn) [CBK201282]	93.7%	
CC(O)CN(Cc1ccc(-n2cnc3ccccc32)cc1)Cc1ccc2c(c1)OCO2 (stereo not drawn) [CBK286475]	101%	
COc1ccc(NC2=N[C@H]3[C@@H](O)[C@H](O)C[C@H](C(=O)N(C)Cc4ccccc4)[C@H]3S2)cc1 [CBK288950]	96.7%	
CC(=O)c1cccc(-n2c(CCC(=O)O)ccc2-c2ccc(Br)cc2)c1 [CBK131888]	98.2%	
O=C(COCc1nc2ccccc2[nH]1)N1CCC(c2ccccc2)C1 (stereo not drawn) [CBK281840]	97.7%	
c1ccc(C(Nc2ncc(-c3cnccn3)c(-c3ccco3)n2)c2ccccc2)cc1 [CBK286413]	90%	
O=C(c1ccc2[nH]ccc2c1)N1CCCC1 [CBK149074]	106%	
Cc1ccc(Cl)c(OC(=O)NCCOC(=O)NO)c1 [CBK288417]		94.3%
Cc1ccnc(NS(=O)(=O)c2ccc(NS(C)(=O)=O)cc2)n1 [CBK261552]	100%	

From PMC12040169 (PLOS Biology, 2025)
